Data on 1 molecule can be found in BindingDB's records for patent US20250108123 (Jacobio Pharmaceuticals, 2025).

The structures appear in SMILES notation.

As usually defined, the IC50 is the concentration that inhibits the measured activity by half. High values mean weaker potency in that assay, low ones greater potency in that assay.

This test concerns the target Stimulator of interferon genes protein (Homo sapiens, UniProt Q86WV6). Briefly: Human STING WT Binding Assay. The method, then: Cisbio Bioassays' human STING WT binding assay (#64BDSTGPEG & 64BDSTGPEH, Cisbio) is for quantitative measurement of human STING WT ligand using HTRF technology.1. Adding CompoundsNegative control: Dispense 5 μL of diluent into each negative control well. Standard: Dispense 5 μL of each Human STING WT Standard 2′3′-cGAMP (Std 0-Std 7) into each standard well. Compound: Dispense 5 μL of compound into each compound well.2. Adding ProteinsNegative control: Add 5 μL of detection buffer to all wells. Other wells: Add 5 μL of human STING WT protein 6His-tagged protein to all wells.3. Adding AntibodiesAdd 10 μL of premixed STING WT ligand d2 reagent and 6His Tb antibody working solution to all wells.4. RT IncubationSeal the plate and incubate 3 hours at RT or at Over Night if necessary.5. Reading PlateRemove the plate sealer and read on an HTRF compatible reader (PerkinElmer, USA). Results were analyzed with a two-wavelength signal ratio: intensity (665 nm)/intensity (620 nm).6.

Chain of Stimulator of interferon genes protein (Q86WV6 whole entry): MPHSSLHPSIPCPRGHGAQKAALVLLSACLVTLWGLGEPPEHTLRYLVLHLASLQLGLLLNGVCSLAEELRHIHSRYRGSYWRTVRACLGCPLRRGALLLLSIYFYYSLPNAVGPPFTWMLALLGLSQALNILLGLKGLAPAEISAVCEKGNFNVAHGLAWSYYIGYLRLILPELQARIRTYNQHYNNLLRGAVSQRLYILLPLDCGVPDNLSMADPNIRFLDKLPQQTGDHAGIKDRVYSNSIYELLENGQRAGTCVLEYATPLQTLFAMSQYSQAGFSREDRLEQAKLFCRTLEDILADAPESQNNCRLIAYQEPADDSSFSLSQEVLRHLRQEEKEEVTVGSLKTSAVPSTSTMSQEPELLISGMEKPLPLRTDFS

Consider `COC1C=C2CN(C(=O)CCC(=O)O)CC2=CC1OCCCOC1C=C2CN(C(=O)CCC(=O)O)CC2=CC1OC` (stereo unspecified) [US20250108123, Example I-1], for which the 50% inhibitory concentration (IC50) is less than 100 pM.
